Source: patent publication US5665330A, “Dual purposed diagnostic/therapeutic agent having a tri-iodinated benzoyl group linked to a coumarin” (Nano Systems LLC, priority 1995, dated 1997)
Where two headings read alike, the source gives them in different places. Blank lines part the entries; values can stand above or below the compound they belong to.

Experiments:
axillary nodes = assay: lymphography, CT imaging of axillary nodes after subcutaneous injection; format: in vivo, New Zealand White Rabbits; details: 4 hours post injection, single 0.5 ml subcutaneous dose, dorsal side of forepaw
Experimental: (§1) 0.75 g of WIN 67591, as prepared in Example 1, was added to approximately 30 ml of 1.1 mm zirconium oxide beads and 10 ml of a solution which was 2% Tetronic 908 (wt/vol %) and 1% SA9OHCO (wt/vol %). SA9OHCO is a small sugar surfactant. The suspension was roller milled in a 60 ml jar at approximately 100 rpm for 7 days. At the end of this time, the average particle size was determined to be 192 nm by light scattering using a Zetasizer III. The suspension was removed from the beads and sent for subcutaneous injection as a lymphographic agent. CT imaging was carried out using a GE Model 9800 Instrument.

water solubility = format: physicochemical
Experimental: Despite the high water solubility of sodium ditriazoate and sodium methoxy coumarin (>1 mg/ml), WIN 67638 and WIN 67591 are sparingly soluble in water with solubility less than 0.01 mg/mL.
By water soluble is meant greater than 1 mg/ml.

[1] = tumor tissue concentration after iv injection in mice bearing colon 33 tumor; format: in vivo; details: mouse, colon 33 tumor tissue, iv; for Cmax at 6 h: read-out: maximum drug concentration in tumor tissue; for Tmax: read-out: time of maximum drug concentration in tumor tissue
Experimental: (§2) A nanoparticulate formulation of 5% w/v […] in 3% polyoctylphenol (Tyloxopol) was prepared by ten days roller milling following the procedures similar to that of Example 9.
(§3) The formulation was administered to mice bearing colon 33 tumor by iv injection. Analysis of the tumor tissue indicated the presence of WIN 67591 in the tumor tissue as soon as 5 minutes after injection. The drug concentration reached a maximum of 90 μg/g of tumor tissue at 6 hours and maintained at a concentration of 60 μg/g of tumor tissue for 42 hours.
(§4) […] as prepared in Example 1 at 5% W/V was formulated with 3% Tyloxapol by roller milling for ten days following the procedures similar to that of work example 3 and 4. The average particle size by PCS was 302 nm. The formulation was administered i.v. to colon 33 bearing mice at 0.2 ml/animal. […] As high as 700 ug (0.7% of the total dosage) WIN 67591 remained circulating in the blood 1 hour post injection. WIN 67591 was detected in the tumor tissue as early as 5 minute post injection. The drug concentration reached a maximum at 90 ug/g of tumor tissue at 6 hour post injection and maintained at a concentration of 60 ug/g in the tumor tissue for 48 hours.

colon 33 tumor tissue = assay: as above; format: in vivo
Experimental: as §2, §3, §4

[2] = mortality in biodistribution study in colon 33 tumor bearing mice; format: in vivo; details: iv 0.2 ml/animal; during 48 hours treatment
Experimental: as §2
(§5) A biodistribution study of the treatment of Example 5 was conducted by iv injections into colon 33 tumor bearing mice at 0.2 ml/animal. […] No dead mice were reported during the 48 hours treatment.

[3] = biodistribution study, circulation in blood of colon 33 tumor bearing mice; format: in vivo; details: Example 7, i.v. 0.2 ml/animal
Experimental: as §2, §5, §4

[4] = blood pool imaging, vascular x-ray contrast by CT after intravenous injection; format: in vivo, New Zealand White rabbits; details: 3 ml/kg via ear vein, CT at 5, 15, 30, 60, 120 min and 24 hours
Experimental: (§6) 2.85 g of WIN 67591 (19.2%) were added to 30 ml of a solution of 5.2% BASF NF Grade Tetronic 908 (wt/vol %) in sterilized distilled water and approximately 100 ml of 1.1 mm zirconium silicate beads in a 250 ml bottle. The bottle was capped and rolled at approximately 140 rpm for 7 days at which time the average particle size was determined to be 173 nm. The suspension was separated from the beads and sent for intravenous injection as a vascular x-ray contrast agent. New Zealand White rabbits were used for this study and were injected via the ear vein at a dose of 3 ml/kg. Three animals were studied for times 5, 15, 30, 60, 120 min. and 24 hours. CT scanning was carried out using a Toshiba Model TCT-900S/x at the times indicated.

[5] = average particle size of roller-milled nanoparticle suspension (light scattering / PCS); format: physicochemical
Experimental: as §1, §6, §4

Compound: COc1cc2oc(=O)cc(COC(=O)c3c(I)c(NC(C)=O)c(I)c(NC(C)=O)c3I)c2cc1OC [WIN 67591]
- enhancement of the axillary nodes (CT) (axillary nodes): clear enchancement of the axillary nodes
- solubility (water solubility; in water, conjugates, read-out: solubility in water): < 10 µg/mL
- Cmax at 6 h ([1]; Example 7, at 6 hour post injection, i.v. 0.2 ml/animal): 90000 ng/g
- concentration at 48 h ([1]; Example 7, for 48 hours, i.v. 0.2 ml/animal, read-out: concentration maintained in tumor tissue): 60000 ng/g
- Tmax ([1]; Example 7, i.v. 0.2 ml/animal): 6 h
- Cmax at 6 h ([1]; Example 5, at 6 hours): 90000 ng/g
- concentration at 42 h ([1]; Example 5, for 42 hours, read-out: concentration maintained in tumor tissue): 60000 ng/g
- Tmax ([1]; Example 5): 6 h
- time for which tumor concentration of 60 μg/g was maintained (colon 33 tumor tissue; Example 5, iv): 42 h
- tumor tissue concentration versus average therapeutic dosage of oncologics (colon 33 tumor tissue; Example 5, iv): exceeds the average therapeutic dosage of oncologics
- time at which drug is present in tumor tissue (colon 33 tumor tissue; Example 5, iv, 5% w/v in 3% Tyloxapol): ≤ 5 min
- time at which drug is detected in tumor tissue (colon 33 tumor tissue; Example 7, HPLC, i.v. 0.2 ml/animal): ≤ 5 min
- time for which tumor concentration of 60 ug/g was maintained (colon 33 tumor tissue; Example 7, i.v. 0.2 ml/animal): 48 h
- dead mice [2]: No dead mice
- amount remaining circulating in the blood ([3]; 1 hour post injection): 700 µg
- share of total dosage remaining circulating in the blood ([3]; 1 hour post injection): 0.7%
- blood circulation [3]: prolonged blood circulation
- prolonged vascular residence time [4]: > 2 h
- average particle size ([5]; 2% Tetronic 908 and 1% SA9OHCO, roller milled 7 days, light scattering, Zetasizer III): 192 nm
- average particle size by PCS ([5]; 5% W/V with 3% Tyloxapol, roller milling ten days): 302 nm
- average particle size ([5]; 5.2% Tetronic 908 in sterilized distilled water, rolled 7 days): 173 nm

- solubility (water solubility; water): < 10 µg/mL
Compound: COc1ccc2c(COC(=O)c3c(I)c(NC(C)=O)c(I)c(NC(C)=O)c3I)cc(=O)oc2c1 [WIN 67638]

- solubility (water solubility; in water, starting materials, read-out: water solubility): > 1000 µg/mL
Compound: CC(=O)Nc1c(I)c(NC(C)=O)c(I)c(C(=O)O)c1I [sodium ditriazoate, sodium diatrizoate, reference compound]

- water solubility (water solubility; water): > 1000 µg/mL
Compound: sodium methoxy coumarin
